According to patent US20250170114A1, “METHODS OF TREATMENT USING T-TYPE CALCIUM CHANNEL MODULATORS” (Praxis Precision Medicines, Inc., priority 2022, published 2025):
“Also recorded” adds a separate entry of the source.

Key:
[1] = system: Harmaline induced tremor activity in male Sprague Dawley (SD) rats; test: Harmaline-induced tremor activity measured with a piezoelectric plate; format: in vivo, rat; settings: harmaline 30 mg/kg i.p., 1 mg/kg p.o. alone
Description: This study sought to evaluate the effects of the HCl salt of the compound of Formula (I) (the “study drug”) administered alone (1 mg/kg, p.o.) or in combination with propranolol (1 and 3 mg/kg, i.p. at 20 min prior) in Harmaline (10 or 30 mg/kg, i.p.) induced tremor activity measured with a piezoelectric plate in male Sprague Dawley (SD) rats.
Rats were fed ad lib and kept at a 12:12 light-dark cycle throughout the study. There were N=15 in each group. Harmaline and propranolol were each formulated with saline using a volume of 5 ml/kg bodyweight. Vehicle for the study drug (1 mg/kg) was 0.5% methyl cellulose/0.1% Tween-80 in water.
1) Rats were allowed to acclimate in standard laboratory animal facility conditions for at least 5-7 days prior to use. 2) Rat was put in a Plexiglas chamber with a piezoelectric plate attached at the bottom to transduce tremor behavior into electronic signal. […] 3) One day prior to the first testing day, a naive rat was put in the testing chamber to confirm that the spontaneous activity baseline was within the range of 3000-10000 uv, as this sensitivity level generally allows all the tremor signal to be detected with the system. […] 11) Post-harmaline effect was measured for 20 min (10-30 min). […]

[2] = system: participants with ET; test: Phase 2 trial Part B: Beck Depression Inventory (BDI-II); format: in vivo, human
Description: The Beck Depression Inventory (BDI-II) is a list of 21 common symptoms of depression (Beck et al 1996). Each item is scored on a 4-point Likert scale (range of scores is 0 through 3). The time frame for assessment is the […] or since the last assessment. The BDI-II is divided into 2 subscales: Affective and Somatic. The subscale scores are calculated as the sum of the items comprising each subscale. The total score is calculated as the sum of all 21 items and ranges from 0 to 63. A total score of 0 to 13 indicates minimal depressive symptoms. A total score of 14 to 19 indicates mild depressive symptoms. A total score of 20 to 28 indicates moderate depressive symptoms. A total score of 29 to 63 indicates severe depressive symptoms. The BDI-II is assessed at screening to exclude participants with moderate to severe depressive symptoms. […] In both phases, key safety measures included clinical laboratory evaluations, 12-lead ECG, C-SSRS, and vital signs. Key efficacy assessments included the TETRAS Performance subscale, TETRAS Upper Limb using accelerometry, CGI, PGI-C, TETRAS ADL Subscale, QUEST, BDI-II, and BAI. Blood samples were obtained for the determination of study drug and metabolite plasma concentrations.

[3] = system: harmaline-induced tremor in male SD rats; test: Tremor assessment (tremor score 0-4) with harmaline in SD rats; format: in vivo, rat; settings: harmaline 30 mg/kg, doses of 1, 3 and 10 mg/kg, listed as compound of Formula (I)
Excerpt: Each of six groups of male SD rats were subjected to a tremor assessment, followed by three ADL-like measures including open field test, rotarod test, and wire grip test after receiving doses of either vehicle, Formula (I), or propranolol, followed by either saline or harmaline, as outlined below in Table 22 below. Twenty minutes after administration of harmaline or saline, the rats were subjected to a tremor assessment using the score criteria outlined in the table below.

[4] = Part B OLT (FAS), Day 7, n = 13
[5] = Part B OLT (FAS), Day 21, n = 12
[6] = Part B OLT (FAS), Day 42, n = 10
[7] = Part B RWD (RWAS), Day 56, Study drug, n = 6
[8] = Part B RWD (RWAS), Day 70, Study drug, n = 5

CC(C)(C)NC(=O)CN1CCC(CNC(=O)c2cc(F)cc(Cl)c2)CC1.Cl [Study drug]
harmaline-induced tremor (tremor power in the 8-13 Hz and 6-15 Hz bands) [1]: significantly reduces | BDI-II Depressive Symptoms Mild (14-19) [2, 4]: 1 n (%) | BDI-II Depressive Symptoms Minimal (0-13) [2, 4]: 12 n (%) | BDI-II Depressive Symptoms Moderate (20-28) [2, 4]: 0 n (%) | BDI-II Depressive Symptoms Severe (29-63) [2, 4]: 0 n (%) | BDI-II Depressive Symptoms Mild (14-19) [2, 5]: 1 n (%) | BDI-II Depressive Symptoms Minimal (0-13) [2, 5]: 11 n (%) | BDI-II Depressive Symptoms Moderate (20-28) [2, 5]: 0 n (%) | BDI-II Depressive Symptoms Severe (29-63) [2, 5]: 0 n (%) | BDI-II Depressive Symptoms Mild (14-19) [2, 6]: 0 n (%) | BDI-II Depressive Symptoms Minimal (0-13) [2, 6]: 10 n (%) | BDI-II Depressive Symptoms Moderate (20-28) [2, 6]: 0 n (%) | BDI-II Depressive Symptoms Severe (29-63) [2, 6]: 0 n (%) | BDI-II Depressive Symptoms Mild (14-19) [2, 7]: 0 n (%) | BDI-II Depressive Symptoms Minimal (0-13) [2, 7]: 6 n (%) | BDI-II Depressive Symptoms Moderate (20-28) [2, 7]: 0 n (%) | BDI-II Depressive Symptoms Severe (29-63) [2, 7]: 0 n (%) | BDI-II Depressive Symptoms Mild (14-19) [2, 8]: 1 n (%) | BDI-II Depressive Symptoms Minimal (0-13) [2, 8]: 4 n (%) | BDI-II Depressive Symptoms Moderate (20-28) [2, 8]: 0 n (%) | BDI-II Depressive Symptoms Severe (29-63) [2, 8]: 0 n (%) | change in BDI-II scores ([2]; Part B, pre-dose baseline to Day 70): no clinically meaningful change over time | average tremor score vs vehicle and harmaline only [3]: significantly reduced; also recorded: significant inhibition
